Experiments:
[1] = system: Chinese hamster ovarian (CHO) cell line; test: In vitro cytotoxicity MTT assay; assay type: cell-based; conditions: CHO vs PfNF54
Procedure: (§1) In vitro cytotoxicity was performed on the Chinese Hamster Ovarian cell line by measuring cellular growth and survival calorimetrically through the MTT assay.[29],[30] The formation of tetrazolium salt was used as a measure of chemosensitivity and growth. (Details of this assay is described in the Supporting Information.) page 19: et al, 1993). The test samples were prepared to a 10 mmol/L stock solution in 100% DMSO. Samples were tested as a suspension if not completely dissolved. Further dilutions to the desired starting concentration were freshly prepared in growth media on each occasion of the experiment. The standard antimalarial drugs chloroquine (CQ) and artesunate (Arts) were used as the reference drug in all experiments. A full dose-response was performed for all compounds […] value). Test samples were tested at a starting concentration of 6mmol/L, which was then serially diluted 2-fold in growth medium to generate the tested concentration range. The same dilution technique was used for all samples. CQ and Arts were tested from a starting concentration of 1μg/mL. The highest concentration of solvent to which the parasites were exposed was <0.1% and has no measurable effect on the parasite viability (data not shown). The assay plate was incubated at 37 °C for 72h in a sealed gas chamber under 3% O2 and 4% CO2 with the balance being N2. After 72h, the wells in the assay plate were gently resuspended, and 15μL from each well was transferred to a duplicate plate containing 100μL of Malstat reagent and 25μL of nitroblue tetrazolium solution in each well. Plates were left to develop for 20 minutes in the dark and then absorbance of each well was quantified using a spectrophotometer at 620nm wavelength. The remaining population of parasites at each concentration of the test compound was determined by comparing the absorbance of each well to the absorbance of a well containing the drug-free control. Survival was plotted against concentration and the IC50 values were obtained using a non-linear dose-response curve fitting analysis via the Dotmatics software platform.2 In vitro Cytotoxicity Assay In vitro cytotoxicity was performed on the Chinese Hamster Ovarian cell line by measuring […] diphenyltetrazolium bromide (MTT) assay.3,4 The formation of tetrazolium salt was used as a measure of chemosensitivity and growth. 2 mg/mL stock solutions of the test compounds were prepared in DMSO and stored at -20 °C until required. The stock solution was subsequently diluted with the assay medium to make up an initial concentration of 100 μg/mL. The initial 100 μg/mL solution is serially diluted 10- S19 page 20: fold to attain six assay concentrations of 100-0.001 μg/mL. […] was used as the reference compound in this assay. The highest concentration of DMSO, which was used as the negative control, had no measurable effect on cell viability. After 44 hours of exposure of the cells to the test compounds, a solution of MTT was added. This was followed by an additional 4 hours of incubation at 37 °C. The assay plates were centrifuged, medium removed, and DMSO was added to the crystals. The amount of formazan was ascertained by measuring the absorbance at 540 nm. GraphPad Prism software was then used to generate IC50 values through a non-linear dose-response curve analysis. β-Hematin Inhibition Assay 20 mM stock solutions of controls and test compounds were made in DMSO. A solution […] was added to every well in columns 1-11 of a 96-well plate. 140 μL of water and 40 μL of 305.5 μM NP-40 were added to column 12 to mediate the formation of beta-hematin. 20 μL of test compounds (20 mM) were added to column 12 and 100 μL of this solution serially diluted to column 2, leaving column 1 blank (0 μM of test compound). 178.8 μL aliquot of hematin stock was suspended in 20 ml of a 1 M acetate buffer at pH 4.9. 100 μL of this hematin suspension was then added into each well, and the plates were incubated for ±5 hrs at 37°C. […]

[2] = In vitro cytotoxicity MTT assay; assay type: cell-based, Chinese hamster; conditions: Chinese hamster, Chinese hamster ovarian (CHO) cells; MTT assay
Procedure: as §1

SMILES | SI (selectivity index) = IC50 CHO/IC50 PfNF54 [1] | IC50 at 44 h [2]
CCN(CCNc1cc2[nH]c(-c3cccc(C(F)(F)F)c3)nc2cn1)Cc1ccc(Cl)cc1O [Compound 14, 5-Chloro-2-((ethyl(2-((2-(3-(trifluoromethyl)phenyl)-1H-imidazo[4,5-c]pyridin-6-yl)amino)ethyl)amino)methyl)phenol] | 466.25 | 37.3 µM
CCN(CCNc1cc2[nH]c(C3CCCC3)nc2cn1)Cc1ccc(Cl)cc1O [Compound 1, 5-Chloro-2-(((2-((2-cyclopentyl-1H-imidazo[4,5-c]pyridin-6-yl)amino)ethyl)(ethyl)amino)methyl)phenol] | 79.76 | 27.1 µM
CCN(CCNc1cc2[nH]c(C3CC3)nc2cn1)Cc1ccc(Cl)cc1O [Compound 5, 5-Chloro-2-(((2-((2-cyclopropyl-1H-imidazo[4,5-c]pyridin-6-yl)amino)ethyl)(ethyl)amino)methyl)phenol] | 119.08 | 46.4 µM
CCN(CCNc1cc2[nH]c(-c3ccc(C(F)(F)F)nc3)nc2cn1)Cc1ccc(Cl)cc1O [Compound 19, 5-Chloro-2-((ethyl(2-((2-(6-(trifluoromethyl)pyridin-3-yl)-1H-imidazo[4,5-c]pyridin-6-yl)amino)ethyl)amino)methyl)phenol] | >131.58 | > 50 µM
CCN(CCNc1cc2[nH]c(C3(C)CC3)nc2cn1)Cc1ccc(Cl)cc1O [Compound 6, 5-Chloro-2-((ethyl(2-((2-(1-methylcyclopropyl)-1H-imidazo[4,5-c]pyridin-6-yl)amino)ethyl)amino)methyl)phenol] | >102.04 | > 50 µM
